Assays:
[1] = target: T1, hERG channel (Homo sapiens, UniProt Q12809); assay: Inhibition of the hERG channel (manual patch clamp assay); assay type: cell-based; conditions: HEK293 cells stably transfected with hERG cDNA, whole-cell patch clamp, tail current
T1 construct: host or cells: HEK293
Source text: The hERG patch clamp assay was done according to standard procedures used in Genetic Toxicology and Safety Pharmacology, based on recommendations and descriptions of methods in the literature, and according to current guidelines (ICH S7B, The non clinical evaluation of the potential for delayed ventricular repolarization (QT interval prolongation) by human pharmaceuticals, 2005). The purpose of the study is to assess the effect of the test item ABC123 on tail current recorded from HEK293 cells stably transfected with hERG cDNA. The HEK293 cells, which have been stably transfected with hERG cDNA, are a model considered to be suitable for this purpose (Zhou et al., 1998). Repolarisation of cardiac ventricular myocytes is mainly due to outward potassium currents. The most important current in humans is the delayed rectifier potassium current, IK, which has both rapidly and slowly activating components (IKr and IKs) (Sanguinetti and Jurkiewicz, 1990). The human ether-a-gogo-related-gene (hERG) encodes the major protein underlying IKr. Thus, inhibition of hERG potassium channels may lead to delayed cardiac repolarisation (Sanguinetti et al., 1995). Prolongation of cardiac repolarisation is a side effect that can be associated with some drug therapies. This proarrhythmic alteration is characterised by a prolongation of the QT interval in the surface electrocardiogram and is of particular concern because it may lead to the development of polymorphic ventricular arrhythmias like torsade de pointes (for review see: Vandenberg, Walker and Campbell, 2001). […] HERG HEK (HEK293 cells stably transfected with hERG cDNA) obtained from the University of Wisconsin were used. For the experiments the cells were plated onto sterile Thermanox plastic coverslips (Nalge Nunc International) in 6-well plates. The dishes were stored in a humidified, gassed incubator. The coverslips with cells were transferred to the recording chamber and continuously superfused (at approximately 1-2 ml/min) with vehicle. The temperature of the vehicle in the bath chamber was regulated by temperature controllers to 35° C.±2.0° C. hERG currents were measured in the whole-cell patch-clamp configuration. Once a stable patch clamp configuration was achieved, recording commenced in voltage-clamp mode, with the cell initially clamped at -75 mV. hERG current was observed and recorded if a stable hERG tail current response could be induced. […] The hERG HEK293 cells were treated approximately 9 min with the test item. The following voltage protocol was applied to induce hERG currents: The step from -75 mV to +10 mV activates an outward current (i.e. current flows out of the cell) and the step from +10 mV to -40 mV produces the tail current (the tail current represents the time taken for the current to turn off). […] The leak current was recorded and subtracted by a P/3n pulse between the voltage pulses (0.1 Hz).

[2] = tested on: phosphorylation of BLNK in Ramos B cells; assay: Anti IgM-induced phosphorylation of BLNK in Ramos B cells; assay type: cell-based; conditions: Homo sapiens, 0.25 h, anti IgM 15 min, flow cytometry anti-BLNK (pY84)
Experimental: Anti IgM-induced phosphorylation of BLNK (BLNK=B cell linker (SLP65=SH2 domain containing leukocyte protein of 65 kDa)) in Ramos B cells: Ramos B cells in a volume of 25 μl were incubated with 25 μl of the compound solution at 2-fold the desired final concentration for 30 min. at 37° C. Then 50 μL anti IgM was added, mixed and incubated for 15 min. at 37° C. In each experiment 8-fold serial dilutions of compounds were tested. The stimulation was stopped by addition of 100 μL/well of PFA (para formaldehyde) I PBS (phosphate buffered saline) (final conc. 2% PFA) for fixation and incubated for 15 min. at 37° C., then centrifuged at 1300 rpm for 3 min and permeabilized by resuspending the cell pellet in 100 μL methanol 90% and further incubated for 30 min at 4° C. The cells were then washed and phosphoproteins were detected by flow cytometry using fluorescently labeled anti-BLNK ([…]) (BD Biosciences).

T1 sequence (Q12809 whole entry): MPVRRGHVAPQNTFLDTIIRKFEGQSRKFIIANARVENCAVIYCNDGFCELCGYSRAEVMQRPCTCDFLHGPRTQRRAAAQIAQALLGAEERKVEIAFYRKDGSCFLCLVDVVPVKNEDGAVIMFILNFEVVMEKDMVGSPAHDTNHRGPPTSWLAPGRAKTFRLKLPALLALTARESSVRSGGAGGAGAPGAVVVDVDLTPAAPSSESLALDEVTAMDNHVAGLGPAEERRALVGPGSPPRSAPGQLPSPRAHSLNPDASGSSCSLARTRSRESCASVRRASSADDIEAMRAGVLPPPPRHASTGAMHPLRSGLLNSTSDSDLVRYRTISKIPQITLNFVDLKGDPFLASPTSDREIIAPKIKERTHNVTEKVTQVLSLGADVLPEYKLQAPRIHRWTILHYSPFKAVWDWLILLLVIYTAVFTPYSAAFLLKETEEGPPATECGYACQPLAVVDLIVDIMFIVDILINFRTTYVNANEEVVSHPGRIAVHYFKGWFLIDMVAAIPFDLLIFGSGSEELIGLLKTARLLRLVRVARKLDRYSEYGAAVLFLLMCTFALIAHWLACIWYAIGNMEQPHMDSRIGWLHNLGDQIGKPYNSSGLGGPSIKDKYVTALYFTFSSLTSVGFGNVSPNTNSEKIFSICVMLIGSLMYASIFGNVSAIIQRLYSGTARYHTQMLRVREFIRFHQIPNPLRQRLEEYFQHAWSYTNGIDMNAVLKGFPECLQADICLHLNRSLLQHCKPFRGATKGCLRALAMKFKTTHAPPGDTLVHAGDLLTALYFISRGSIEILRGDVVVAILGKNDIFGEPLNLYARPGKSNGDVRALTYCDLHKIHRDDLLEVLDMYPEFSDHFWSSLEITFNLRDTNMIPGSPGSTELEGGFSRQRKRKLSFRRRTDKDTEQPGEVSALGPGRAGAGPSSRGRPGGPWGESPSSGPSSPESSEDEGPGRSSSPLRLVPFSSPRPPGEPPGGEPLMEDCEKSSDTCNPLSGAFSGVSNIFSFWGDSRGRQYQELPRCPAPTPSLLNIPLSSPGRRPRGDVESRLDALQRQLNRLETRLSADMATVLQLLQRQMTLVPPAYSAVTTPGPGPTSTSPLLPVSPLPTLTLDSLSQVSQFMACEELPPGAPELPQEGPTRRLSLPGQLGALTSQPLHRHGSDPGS

NC(=O)c1nnc(N[C@@H]2CCCC[C@@H]2N)nc1Nc1cccc2cc[nH]c12 [Example 1.1, 3-((1R,2S)-2-Amino-cyclohexylamino)-5-(1H-indol-7-ylamino)-[1,2,4]triazine-6-carboxylic acid amide]
inhibition at 9 min, 10 µM ([1]; at 10 uM): -5 ± 4%
inhibition at 9 min, 30 µM ([1]; at 30 uM): 12 ± 6%
IC50 [2]: 106 nM

— patent publication US20130310387A1, “Monocyclic Heteroaryl Cycloalkyldiamine Derivatives” (NOVARTIS AG, priority 2012, published 2013)
